{"source": "patent US11980616B2", "about": "“Treating liver disease by selectively eliminating senescent cells” (Buck Institute for Research on Aging, priority 2014, dated 2024)", "key": {"p16-3MR transgenic mice": {"test_system": "p16-3MR transgenic mice", "experiment": "Paclitaxel-induced senescence in p16-3MR mice", "assay_type": "in vivo, mouse", "details": "20 mg/kg three times every two days", "experimental": "Paclitaxel induces senescence and SASP in p16-3MR transgenic mice. Groups of mice (n=4) were treated three times every two days with 20 mg/kg paclitaxel or vehicle. […] The level of mRNA in skin was determined for each of the target genes: p16, 3MR transgene, and IL-6."}, "senescent IMR90 cells": {"test_system": "senescent IMR90 cells", "experiment": "CellTiter-Glo cell viability assay, senescent IMR90", "assay_type": "cell-based, human", "experimental": "(§1) To determine whether ABT-263 is selectively toxic to senescent cells compared to non-senescent cells, a cell viability assay was used to assess cell survival following treatment with ABT-263. IMR90 cells (human primary lung fibroblasts (IMR90) (IMR-90 (ATCC® CCL-186™, Manassas, Virginia) were seeded in six well plates, and cells were induced to senescence with 10 Gy of ionizing radiation (IR) (Day 0). The media was refreshed every 3 days. The senescent phenotype is allowed to develop for 7 days at which point a cell count was made to determine the baseline number of cells followed by seeding into 96-well plates. On day 8, the senescent cells (irradiated) and the non-senescent cells (the non-radiated cells), were exposed to serial dilutions of ABT-263 for a period of 3 days. ABT-263 concentrations ranged from 0.5 nM to 3 μM. Each condition was seeded in triplicate.\n(§2) After three days of treatment (Day 11), cells were assayed for cell survival using the commercially available CellTiter-Glo® (CTG) Luminescent Cell Viability Assay (Promega Corporation, Madison, Wisconsin). The assay determines the number of viable cells in culture based on the quantitation of ATP present which is an indicator of metabolically active cells.\nThe experiments performed for assessing the effect of these other Bcl-2 inhibitors were performed essentially as described in Example 7. Cells were exposed to ABT-199 at serial dilution concentrations ranging from 15 nM to 100 μM (FIGS. 26 and 27). Cells were exposed to Obatoclax at concentrations ranging from 1.4 nM to 9 μM (FIG. 28).\nIMR90 cells were induced to senescence by irradiation as described in Example 7. The irradiated IMR90 cells and non-senescent IMR90 cells were then exposed to a compound called ML214 that is a Bcl-2A1 specific inhibitor.\nThe effect of ABT-263 in combination with the Akt inhibitor MK-2206 was tested for selective toxicity of senescent cells compared to non-senescent cells in IMR90 cells. The methods of Example 7 were repeated except that cell cultures were exposed to 10 nM MK-2206 (Selleckem, Cat #S1078) in addition to serial dilutions of ABT-263."}, "[1]": {"test_system": "INK-ATTAC transgenic mice", "experiment": "Cardiac stress test (isoproterenol) in aged INK-ATTAC transgenic mice", "assay_type": "in vivo, mouse", "experimental": "To study the impact of senescent cell clearance on health and lifespan, cohorts of INK-ATTAC transgenic mice on FVB×129Sv/E×C57BL/6 mixed or C57BL/6 pure genetic backgrounds were established. At 12 months age, one half of each cohort was injected three times/week with AP20187 to induce apoptosis of p16-positive senescent cells (0.2 mg/kg and 2 mg/kg AP20187 for the mixed and the pure C57BL/6 cohorts, respectively), while the other half of each cohort received vehicle. At 18 months, subsets of male and female mice from each cohort were subjected to a cardiac stress test, in which mice were injected with a lethal dose of isoproterenol (680 mg/kg) and the time to cardiac arrest was recorded.\nCardio-protective signaling pathways are known to provide tolerance to metabolic stresses such as ischemia and hypoxia decline (Granfeldt et al., 2009, Cardiovasc. Res. 83:234-246). However, cardio-protective signaling deteriorates with aging, thus decreasing the functional and adaptive reserve capacity of the heart (Ogawa et al., 1992, Circulation 86:494-503; Wiebe et al., 1998, Clin. J. Sport Med. 8:272-279). ATP-dependent K channels (KATP) play a central role in cardio-protective signaling (Gross and Auchampach, 1992, Cardiovasc. Res. 26:1011-1016). These KATP channels are composed of the pore-forming subunit Kir6.2/Kir6.1, the regulatory subunit Sur2a, and additional accessory proteins. KATP channels are thought to decline with aging due to decreased expression of Sur2a (Du et al., 2006, FASEB J. 20:1131-1141; Jovanovic and Jovanovic, 2009, Curr. Opin. Pharmacol. 9:189-193; Ranki et al., 2002, Mech. Ageing Dev. 123:695-705). […] Thus, the contribution of senescent cells to the age-related decline in Sur2a expression was examined in 18 month old AP20187-treated and vehicle treated mice from subjected to the cardiac stress test previously described. […] Taken together, these experiments indicate that the presence of senescent cells with aging negatively impacts KATP channel function, and senescent cell clearance is an effective therapy to counteract this deterioration."}, "[2]": {"test_system": "3MR or INK-ATTAC mice exposed to cigarette smoke", "experiment": "Chronic cigarette smoke exposure model (COPD)", "assay_type": "in vivo, mouse", "details": "after 2 months of cigarette smoke exposure; vs untreated controls", "experimental": "In a second animal model for pulmonary diseases (e.g., COPD), mice were exposed to cigarette smoke. The effect of a senolytic agent on the mice exposed to smoke is assessed by senescent cell clearance, lung function, and histopathology.\nSix week-old 3MR (n=35) or INK-ATTAC (n=35) mice were chronically exposed to cigarette smoke generated from a Teague TE-10 system, an automatically-controlled cigarette smoking machine that produces a combination of side-stream and mainstream cigarette smoke in a chamber, which is transported to a collecting and mixing chamber where varying amounts of air is mixed with the smoke mixture. The COPD protocol was adapted from the COPD core facility at Johns Hopkins University (at Internet site web.jhu.edu/Biswal/exposure_core/copd.html#Cigarette_Smoke) (Rangasamy et al., 2004, J. Clin. Invest. 114:1248-1259; Yao et al., 2012, J. Clin. Invest. 122:2032-2045). Mice received a total of 6 hours of cigarette smoke exposure per day, 5 days a week for 6 months. Each lighted cigarette (3R4F research cigarettes containing 10.9 mg of total particulate matter (TPM), 9.4 mg of tar, and 0.726 mg of nicotine, and 11.9 mg carbon monoxide per cigarette [University of Kentucky, Lexington, KY]) was puffed for 2 seconds and once every minute for a total of 8 puffs, with the flow rate of 1.05 L/min, to provide a standard puff of 35 cm^3. The smoke machine was adjusted to produce a mixture of side stream smoke (89%) and mainstream smoke (11%) by smoldering 2 cigarettes at one time. The smoke chamber atmosphere was monitored for total suspended particulates (80-120 mg/m^3) and carbon monoxide (350 ppm). Beginning at day 7, (10) INK-ATTAC and (10) 3MR mice were treated with AP20187 (3× per week) or gancyclovir (5 consecutive days of treatment followed by 16 days off drug, repeated until the end of the experiment), respectively. An equal number of mice received the corresponding vehicle. The remaining […] (15 INK-ATTAC and 15 3MR) were evenly split with 5 of each genetically modified strain placed into three different treatment groups. One group (n=10) received Nutlin-3A (25 mg/kg dissolved in 10% DMSO/3% Tween-20 in PBS, treated 14 days consecutively followed by 14 days off drug, repeated until the end of the experiment). […]\nAfter two months of cigarette smoke exposure, lung function was assessed by monitoring oxygen saturation using the MouseSTAT PhysioSuite pulse oximeter (Kent Scientific). […] Mice were monitored for 30 seconds and the average peripheral capillary oxygen saturation (SpO2) measurement over this duration was calculated."}, "p16-3MR animals": {"test_system": "p16-3MR animals", "experiment": "Senescence induced by chemotherapeutic drugs in p16-3MR animals (luminescence)", "assay_type": "in vivo, mouse", "details": "p<0.05; pomalidomide 5 mg/kg, lenalidomide 50 mg/kg 7 daily injections; doxorubicin 10 mg/kg 2-4 injections", "experimental": "To examine senescence induced by different chemotherapeutic drugs, groups of p16-3MR animals (n=4) were treated with thalidomide (100 mg/kg; 7 daily injections); romidepsin (1 mg/kg; 3 injections); pomalidomide (5 mg/kg; 7 daily injections); lenalidomide (50 mg/kg; 7 daily injections); 5-azacytidine (5 mg/kg; 3 injections) and compared with doxorubicin (10 mg/kg, 2-4 injections over 7 days)."}, "[3]": {"test_system": "myocardial damage in patients", "details": "drug product inserts; cited from earlier work"}, "[4]": {"test_system": "non-senescent IMR90 cells", "experiment": "CellTiter-Glo cell viability assay, non-senescent IMR90", "assay_type": "cell-based", "details": "Homo sapiens, IMR-90, 72 h; non-senescent IMR90, 3 days", "experimental": "as §1, §2\nThe experiments performed for assessing the effect of these other Bcl-2 inhibitors were performed essentially as described in Example 7. […]"}}}
{"smiles": "CC(=O)O[C@H]1C(=O)[C@@]2(C)[C@H]([C@H](OC(=O)c3ccccc3)[C@]3(O)C[C@H](OC(=O)[C@H](O)[C@@H](NC(=O)c4ccccc4)c4ccccc4)C(C)=C1C3(C)C)[C@]1(OC(C)=O)CO[C@@H]1C[C@@H]2O", "note": "[paclitaxel]", "values": [{"measurement": "Senescence shown by luminescence", "setting": "p16-3MR transgenic mice", "value": "Senescence was observed"}, {"measurement": "3MR transgene mRNA in skin", "setting": "p16-3MR transgenic mice; vs vehicle", "value": "increased"}, {"measurement": "IL-6 mRNA in skin", "setting": "p16-3MR transgenic mice; vs vehicle", "value": "increased"}, {"measurement": "p16 mRNA in skin", "setting": "p16-3MR transgenic mice; vs vehicle", "value": "increased"}]}
{"smiles": "CC1(C)CCC(CN2CCN(c3ccc(C(=O)NS(=O)(=O)c4ccc(NCC5CCOCC5)c([N+](=O)[O-])c4)c(Oc4cnc5[nH]ccc5c4)c3)CC2)=C(c2ccc(Cl)cc2)C1", "note": "[ABT-199]", "values": [{"measurement": "Selective targeting (killing) of senescent cells over non-senescent cells", "setting": "senescent IMR90 cells; IMR90", "value": "inability"}]}
{"smiles": "CC[C@H](C(=O)N1CCCC[C@H]1C(=O)O[C@H](CCc1ccc(OC)c(OC)c1)c1cccc(OCC(=O)NCC(CNC(=O)COc2cccc([C@@H](CCc3ccc(OC)c(OC)c3)OC(=O)[C@@H]3CCCCN3C(=O)[C@@H](CC)c3cc(OC)c(OC)c(OC)c3)c2)CN(C)C)c1)c1cc(OC)c(OC)c(OC)c1", "note": "[AP20187]", "values": [{"measurement": "Time to cardiac arrest after lethal isoproterenol", "setting": "[1]; 0.2 or 2 mg/kg three times/week from 12 to 18 months, isoproterenol 680 mg/kg", "value": "sustained youthful cardio-protection"}, {"measurement": "Sur2a expression", "setting": "[1]; 18-month-old female mice", "value": "sustained Sur2a expression"}, {"measurement": "Median lifespan", "setting": "[1]; INK-ATTAC mice", "value": "median lifespan extension"}, {"measurement": "SpO2 levels", "setting": "[2]", "value": "statistically significant increases"}]}
{"smiles": "Nc1cccc2c1CN(C1CCC(=O)NC1=O)C2=O", "note": "(stereo not drawn) [lenalidomide]", "values": [{"measurement": "Level of senescent cells (luminescence)", "setting": "p16-3MR animals", "value": "significant levels of senescent cells"}]}
{"smiles": "Nc1cccc2c1C(=O)N(C1CCC(=O)NC1=O)C2=O", "note": "(stereo not drawn) [omalidomide]", "values": [{"measurement": "Level of senescent cells (luminescence)", "setting": "p16-3MR animals", "value": "significant levels of senescent cells"}]}
{"smiles": "COc1cccc2c1C(=O)c1c(O)c3c(c(O)c1C2=O)C[C@@](O)(C(=O)CO)C[C@@H]3O[C@H]1C[C@H](N)[C@H](O)[C@H](C)O1", "note": "[doxorubicin]", "values": [{"measurement": "Level of senescent cells (luminescence)", "setting": "p16-3MR animals", "value": "significant levels of senescent cells"}, {"measurement": "Total lifetime dose above which myocardial damage may lead to congestive heart failure", "setting": "[3]", "value": "exceeds 550 mg/m^2"}]}
{"smiles": "COC1=CC(c2cc3ccccc3[nH]2)=N/C1=C\\c1[nH]c(C)cc1C", "note": "[Obatoclax]", "values": [{"measurement": "IC50", "setting": "[4]", "value": 75, "unit": "nM"}, {"measurement": "IC50", "setting": "senescent IMR90 cells; Homo sapiens, IMR-90, 72 h, senescent IMR90, 3 days", "value": 125, "unit": "nM"}]}
